Measured values as given in patent publication US11952365B2, “Anti-viral compounds” (Aligos Therapeutics, Inc., priority 2020, dated 2024).
Read-outs that look alike come from different tables or passages of the source.

Key:
[1] = tested on: SARS-CoV-2-GHB-03021/2020; assay: SARS-CoV-2 Infection Model in Huh7 Cells; assay type: cell-based; settings: Severe acute respiratory syndrome coronavirus 2, Huh-7, 96 h, SARS-CoV-2, day 4 p.i., MTS
in vitro [2] = settings: African green monkey, VeroE6 + CP (CC50), Vero E6-eGFP cells with CP-100356, absence of virus, MTS
HRV3C = HRV3C (Human rhinovirus 14, UniProt P03303); assay: HRV3C protease assay (duplex, SAMDI-MS); assay type: biochemical, HRV; settings: 30 mins preincubation
Outline: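 Compounds are preincubated 30 min with the protease pair before substrate addition, and cleavage proceeds 30 min at room temperature. Product peptides are measured by SAMDI-MS relative to internal standards, with IC50 obtained from a four-parameter fit.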

in vitro [3] = settings: human
[4] = tested on: SARS-CoV-2-GHB-03021/2020; assay: microbe, parasite or virus in culture; assay type: cell-based; settings: Severe acute respiratory syndrome coronavirus 2, Vero C1008, 96 h; read-out: VeroE6 + CP (EC50)
human cathepsin L = target: T1, human cathepsin L (Homo sapiens, UniProt P07711); assay: cathepsin L assay; assay type: biochemical; settings: 10 pM human cathepsin L, Z-FR-AMC 2 μM, class symbols
T1 construct: purchased R&D Systems
Outline: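 Reactions began by adding 2 μM (final) Z-FR-AMC substrate to 10 pM human cathepsin L that had been preincubated 30 min with inhibitor. Kinetic AMC fluorescence at 355/460 nm over 30 min at 2-min intervals; four-parameter fitting gave IC50 values.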

3CLpro = 3CLpro (Severe acute respiratory syndrome coronavirus 2, UniProt P0DTD1); assay: SARS-CoV-2 3CLpro protease assay (duplex, SAMDI-MS); assay type: biochemical; set-up: For the duplex assay, 3CLpro and HRV3C was added; settings: 30 mins preincubation, class symbols
[5] = Cytotoxicity plates without OC43 virus (cell-titer-glo); assay type: cell-based, human; settings: human; HeLa cells without OC43 virus, class symbols
Outline: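 Run as a virus-free counterpart of the OC43 cytopathic-effect assay. Attached HeLa cells received compound dilutions in EMEM with 2% FBS and were kept 6 days at 33 °C. Cell viability was then measured by CellTiter-Glo luminescence.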

[6] = tested on: human beta-coronavirus OC43; assay: microbe, parasite or virus in culture; assay type: cell-based; settings: Betacoronavirus 1, OC43, HeLa, 144 h
[7] = HRV3C, bound, read-out: HRV IC50
[8] = 3CLpro, read-out: SARS-Cov-2 IC50
[9] = OC43 in HeLa cells, 6 days at 33° C., class symbols, read-out: EC50
[10] = HRV3C, class symbols, read-out: HRV IC50

SMILES | EC50 ([1]; class symbols) | CC50 (in vitro [2]; class symbols) | IC50 (HRV3C; [7]) | CC50 (in vitro [3]) | EC50 [4] | IC50 (human cathepsin L) | IC50 (3CLpro; [8]) | CC50 at 6 days [5] | EC50 [6, 9] | CC50 (in vitro [2]; numeric bounds) | IC50 (HRV3C; [10]) | IC50 (HRV3C; HRV IC50, HRV3C, class symbols) | IC50 (HRV3C; HRV IC50, HRV3C, bound) | IC50 (3CLpro; SARS-Cov-2 IC50, 3CLpro) | EC50 [6] | EC50 ([1]; numeric bounds)
O=C1NCC[C@H]1C[C@H](NC(=O)[C@@H]1[C@H]2CCC[C@H]2CN1C(=O)c1cc2c(Cl)cc(Oc3ccccc3)cc2[nH]1)C(=O)CO [Compound 129, (1S,3aR,6aS)-2-(4-chloro-6-phenoxy-1H-indole-2-carbonyl)-N-[(2S)-4-hydroxy-3-oxo-1-[(3S)-2-oxopyrrolidin-3-yl]butan-2-yl]-hexahydro-1H-cyclopenta[c]pyrrole-1-carboxamide] | < 1 µM | > 10 µM | > 10 µM | > 10 µM | < 1 µM | ≥ 10 µM | < 0.02 µM | > 10 µM | < 0.1 µM | – | – | – | – | – | – | –
O=C1NCC[C@H]1C[C@H](NC(=O)[C@@H]1[C@H]2CCC[C@H]2CN1C(=O)c1cc2c(Cl)cc(OCc3ccccc3)cc2[nH]1)C(=O)CO [Compound 130, (1S,3aR,6aS)-2-(6-(benzyloxy)-4-chloro-1H-indole-2-carbonyl)-N—((S)-4-hydroxy-3-oxo-1-((S)-2-oxopyrrolidin-3-yl)butan-2-yl)octahydrocyclopenta[c]pyrrole-1-carboxamide] | < 1 µM | > 10 µM | > 10 µM | > 10 µM | < 1 µM | ≥ 10 µM | 0.02 to 0.2 µM | > 10 µM | < 0.1 µM | – | – | – | – | – | – | –
CC(C)(C)C(=O)OCC(=O)[C@H](C[C@@H]1CCNC1=O)NC(=O)[C@@H]1[C@H]2CCC[C@H]2CN1C(=O)c1cc2c(Cl)cc(Cl)cc2[nH]1 [Compound 132, (3S)-3-{[(1S,3aR,6aS)-2-(4,6-dichloro-1H-indole-2-carbonyl)-hexahydro-1H-cyclopenta[c]pyrrol-1-yl]formamido}-2-oxo-4-[(3S)-2-oxopyrrolidin-3-yl]butyl 2,2-dimethylpropanoate] | < 1 µM | > 10 µM | > 10 µM | > 10 µM | < 1 µM | ≥ 10 µM | 0.2 to 2 µM | 1 to 10 µM | < 0.1 µM | – | – | – | – | – | – | –
O=C1NCC[C@H]1C[C@H](NC(=O)[C@@H]1[C@H]2CCC[C@H]2CN1C(=O)c1cc2c(OCc3ccccc3)cccc2[nH]1)C(=O)CO [Compound 133, (1S,3aR,6aS)-2-[4-(benzyloxy)-1H-indole-2-carbonyl]-N-[(2S)-4-hydroxy-3-oxo-1-[(3S)-2-oxopyrrolidin-3-yl]butan-2-yl]-hexahydro-1H-cyclopenta[c]pyrrole-1-carboxamide] | < 1 µM | – | > 10 µM | > 50 µM | < 1 µM | ≥ 10 µM | < 0.02 µM | > 10 µM | < 0.1 µM | > 50 µM | – | – | – | – | – | –
COc1cccc2[nH]c(C(=O)N3C[C@@H]4CCC[C@@H]4[C@H]3C(=O)N[C@@H](C[C@@H]3CCNC3=O)C(=O)C(=O)NCCOc3ccccc3)cc12 [Compound 134] | 1 to 10 µM | – | – | > 50 µM | 1 to 10 µM | ≥ 10 µM | < 0.02 µM | > 10 µM | 0.1 to 1 µM | > 50 µM | 2 to 20 µM | – | – | – | – | –
O=C1NCC[C@H]1C[C@H](NC(=O)[C@@H]1[C@H]2[C@H]3CC[C@H](C3)[C@H]2CN1C(=O)c1cc2c(Cl)cc(Cl)cc2[nH]1)C(=O)CO [Compound 135, (1S,3aR,4R,7S,7aS)-2-(4,6-dichloro-1H-indole-2-carbonyl)-N—((S)-4-hydroxy-3-oxo-1-((S)-2-oxopyrrolidin-3-yl)butan-2-yl)octahydro-1H-4,7-methanoisoindole-1-carboxamide] | < 1 µM | > 10 µM | – | > 10 µM | < 1 µM | ≥ 10 µM | 0.02 to 0.2 µM | > 10 µM | 0.1 to 1 µM | – | – | 2 to 20 µM | – | – | – | –
O=C1NCC[C@H]1C[C@H](NC(=O)[C@@H]1[C@@H]2[C@H](CN1C(=O)c1cc3c(Cl)cc(Cl)cc3[nH]1)[C@@H]1C=C[C@H]2C1)C(=O)CO [Compound 136, (1R,2S,3S,6R,7S)-4-(4,6-dichloro-1H-indole-2-carbonyl)-N-[(2S)-4-hydroxy-3-oxo-1-[(3S)-2-oxopyrrolidin-3-yl]butan-2-yl]-4-azatricyclo[5.2.1.0^{2,6}]dec-8-ene-3-carboxamide] | < 1 µM | – | – | > 50 µM | < 1 µM | ≥ 10 µM | < 0.02 µM | > 10 µM | < 0.1 µM | > 50 µM | 2 to 20 µM | – | – | – | – | –
O=C1NCC[C@H]1C[C@H](NC(=O)[C@@H]1[C@H]2CCC[C@H]2CN1C(=O)c1cc2c(Cl)ccc(Oc3ccccc3)c2[nH]1)C(=O)CO [Compound 137, (1S,3aR,6aS)-2-(4-chloro-7-phenoxy-1H-indole-2-carbonyl)-N-[(2S)-4-hydroxy-3-oxo-1-[(3S)-2-oxopyrrolidin-3-yl]butan-2-yl]-hexahydro-1H-cyclopenta[c]pyrrole-1-carboxamide] | < 1 µM | – | – | > 10 µM | 1 to 10 µM | ≥ 10 µM | – | > 10 µM | < 0.1 µM | > 50 µM | – | – | > 10 µM | 0.02 to 0.2 µM | – | –
O=C1NCC[C@H]1C[C@H](NC(=O)[C@@H]1[C@H]2CCC[C@H]2CN1C(=O)c1cc2c(OC3CC3)cc(Cl)cc2[nH]1)C(=O)CO [Compound 138, (1S,3aR,6aS)-2-(6-chloro-4-cyclopropoxy-1H-indole-2-carbonyl)-N-[(2S)-4-hydroxy-3-oxo-1-[(3S)-2-oxopyrrolidin-3-yl]butan-2-yl]-hexahydro-1H-cyclopenta[c]pyrrole-1-carboxamide] | < 1 µM | – | – | > 50 µM | 1 to 10 µM | ≥ 10 µM | < 0.02 µM | > 10 µM | < 0.1 µM | > 50 µM | 2 to 20 µM | – | – | – | – | –
O=C1NCC[C@H]1C[C@H](NC(=O)[C@@H]1[C@H]2CCC[C@H]2CN1C(=O)c1nc2c(Cl)ccc(Cl)c2[nH]1)C(=O)CO [Compound 139, (1S,3aR,6aS)-2-(4,7-dichloro-1H-1,3-benzodiazole-2-carbonyl)-N-[(2S)-4-hydroxy-3-oxo-1-[(3S)-2-oxopyrrolidin-3-yl]butan-2-yl]-hexahydro-1H-cyclopenta[c]pyrrole-1-carboxamide] | < 1 µM | – | – | > 50 µM | < 1 µM | ≥ 10 µM | < 0.02 µM | > 10 µM | – | > 50 µM | – | – | > 10 µM | – | 0.1 to 1 µM | –
O=C(NC1CC1)C(=O)[C@H](C[C@@H]1CCNC1=O)NC(=O)[C@@H]1CC2(CCN1C(=O)c1cc3ccccc3[nH]1)CC2 [Compound 140, (S)—N—((S)-4-(cyclopropylamino)-3,4-dioxo-1-((S)-2-oxopyrrolidin-3-yl)butan-2-yl)-6-(1H-indole-2-carbonyl)-6-azaspiro[2.5] octane-5-carboxamide] | 1 to 10 µM | – | – | > 10 µM | 1 to 10 µM | ≥ 10 µM | 0.02 to 0.2 µM | > 10 µM | – | > 50 µM | – | 2 to 20 µM | – | – | 0.1 to 1 µM | –
O=C(NC1CC1)C(=O)[C@H](C[C@@H]1CCNC1=O)NC(=O)[C@@H]1CC2(CCN1C(=O)c1cc3c(Cl)cc(Cl)cc3[nH]1)CC2 [Compound 141] | – | – | – | > 10 µM | > 50 µM | 0.1 to 1 µM | 0.02 to 0.2 µM | > 10 µM | 0.1 to 1 µM | > 50 µM | 2 to 20 µM | – | – | – | – | > 50 µM
